Measured values reported in patent US20200096789A1, “Optical Aid” (priority 2017, published 2020).

Assays:
Type in all cases: cell-based
SLC7A11 = biological target: T1, SLC7A11 (Homo sapiens, UniProt Q9UPY5); test: total intracellular selenium levels after selenite supplementation; conditions: knockout of SLC7A11
T1 construct: endogenous in cells
T1 sequence (Q9UPY5 1-501): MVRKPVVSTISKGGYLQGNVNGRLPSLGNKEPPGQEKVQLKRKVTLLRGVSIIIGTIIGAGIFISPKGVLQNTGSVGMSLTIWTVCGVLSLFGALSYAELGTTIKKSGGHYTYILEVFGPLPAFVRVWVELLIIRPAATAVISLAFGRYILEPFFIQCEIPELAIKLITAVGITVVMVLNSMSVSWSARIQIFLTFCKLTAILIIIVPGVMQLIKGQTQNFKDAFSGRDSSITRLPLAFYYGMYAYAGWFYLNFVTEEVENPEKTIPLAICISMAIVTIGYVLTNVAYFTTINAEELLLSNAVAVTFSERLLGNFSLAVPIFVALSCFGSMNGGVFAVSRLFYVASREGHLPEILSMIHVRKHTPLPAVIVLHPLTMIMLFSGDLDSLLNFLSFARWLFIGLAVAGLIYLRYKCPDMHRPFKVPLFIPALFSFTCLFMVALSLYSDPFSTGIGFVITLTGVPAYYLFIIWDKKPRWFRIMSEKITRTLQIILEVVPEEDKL
T1 sequence (P08195 1-529 partner): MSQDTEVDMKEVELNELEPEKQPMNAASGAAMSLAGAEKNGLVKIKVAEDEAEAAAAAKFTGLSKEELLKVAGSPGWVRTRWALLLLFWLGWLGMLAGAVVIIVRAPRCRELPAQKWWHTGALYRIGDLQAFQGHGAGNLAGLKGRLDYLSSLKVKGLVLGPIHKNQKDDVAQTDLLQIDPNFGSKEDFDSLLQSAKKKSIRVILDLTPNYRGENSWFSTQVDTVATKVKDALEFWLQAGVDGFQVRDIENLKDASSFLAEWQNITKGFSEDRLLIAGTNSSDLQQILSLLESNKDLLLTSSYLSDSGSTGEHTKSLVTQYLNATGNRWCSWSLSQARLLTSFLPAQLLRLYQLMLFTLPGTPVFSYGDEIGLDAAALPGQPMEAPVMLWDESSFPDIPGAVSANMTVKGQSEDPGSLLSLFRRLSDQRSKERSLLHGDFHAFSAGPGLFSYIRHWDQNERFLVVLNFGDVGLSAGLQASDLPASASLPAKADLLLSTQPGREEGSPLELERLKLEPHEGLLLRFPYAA
Description: SLC7A11 was 5.5-fold enriched in SEPHS2-sensitive cell lines (FIG. 4C).

U251 GBM cell line = test: selenite treatment in conjunction with SEPHS2 KO (growth); conditions: 12 uM selenite; growth normalized to SEPHS2 KO cells
Method: FIGS. 2A-D provide evidence that SEPHS2 plays a detoxifying role in U251 GBM cell line. (A) Knockdown of either SEPHS2 or SEPSECS can block selenoprotein expression. (B) However, only SEPHS2 KO has significant toxicity. (C) Model for ‘pushing’ toxicity in which if SEPHS2 plays a detoxifying role, its KO should synergize with increased selenited input. (D) Synergy is indeed seen with 12 uM selenite treatment in conjunction with SEPHS2 KO. Growth is normalized to the already lower growth rate of the SEPHS2 KO cells, thus the bars in asterisks indicate (statistically significant) synergy.
We had classified SEPHS2 as a putative detoxifier as its substrate, selenide, is the most toxic form of selenium^12. The notion of SEPHS2 as a detoxifier has not previously been explored, and SEPHS2 is simply known for its enzymatic role (which cannot be replaced by its isoform, SEPHS1^13) as an intermediate step in producing selenocysteine for selenocysteinyl-tRNA production. The selenocysteine producing pathway is a simple and linear pathway starting from dietary […]—or […] or other inorganic forms which can be converted to selenite, selenite being the most common form^14,15. Selenite is imported and converted through in an unclear manner to form selenide, which is then metabolized by SEPHS2 to form selenophosphate, accompanied by ATP hydrolysis. […]

U251 cells = test: CRISPR/Cas9 screen of candidate selenium transporters: toxicity of 12 μM selenite; conditions: both guides against SLC7A11, U251 cells
Method: We compared the cells that are sensitive to SEPHS2 KO vs those that are not sensitive to identify key drivers of selenide production. We examined these lines for susceptibility to high, toxic doses of selenite as it is an abundant and bioavailable form of selenium. We observed a strong correlation between susceptibility to high-dose selenite and to SEPHS2 KO (FIG. 4A). […] Two guides per candidate transporter were knocked out in U251 cells and effects on the toxicity of 12 μM selenite were examined.

GPX4 and SEPHS2 = test: selenoprotein expression after selenite supplementation; conditions: supplementation with selenite to media

O=[Se](O)O [selenite]
total intracellular selenium due to supplemented selenite (SLC7A11): prevented any increase | growth with selenite in conjunction with SEPHS2 KO (U251 GBM cell line): Synergy | toxicity of high-dose selenite after knockout of SLC7A11 (U251 cells): complete rescue | expression of selenoproteins GPX4 and SEPHS2 (GPX4 and SEPHS2): increased expression
